In patent US20240270821A1, “GIP/GLP1/GCG TRI-RECEPTOR AGONISTS AND USES THEREOF” (priority 2023, published 2024):
Starred links: 1 amine or outer side, 2 acyl side, 3 side chain; linkers in the order of their positions; H or OH if unused. Non-standard residues stand in square brackets, D forms with d. Residues, ends and D or L forms follow the SMILES beside them. Groups on a side chain read outwards from the residue. *: point of attachment. C18 diacid = O=C(O)CCCCCCCCCCCCCCCCC(=O)*; αMePhe(2-F) = C[C@](N)(Cc1ccccc1F)C(=O)O; γGlu = O=C(O)[C@H](CCC(=O)[*:2])N[*:1]; αMeY = C[C@](N)(Cc1ccc(O)cc1)C(=O)O; 4Pal = N[C@@H](Cc1ccncc1)C(=O)O; αMeL = CC(C)C[C@](C)(N)C(=O)O; αMeS = C[C@](N)(CO)C(=O)O; Orn = NCCC[C@H](N)C(=O)O; Aib = CC(C)(N)C(=O)O

Assays:
Format in all cases: cell-based
[1] = biological target: T1, hGIPR (Homo sapiens, UniProt P48546); test: Functional cAMP activity in the presence of 1% HSA; conditions: read-out: cAMP Rel EC50, hGIPR
T1 sequence (P48546 22-466): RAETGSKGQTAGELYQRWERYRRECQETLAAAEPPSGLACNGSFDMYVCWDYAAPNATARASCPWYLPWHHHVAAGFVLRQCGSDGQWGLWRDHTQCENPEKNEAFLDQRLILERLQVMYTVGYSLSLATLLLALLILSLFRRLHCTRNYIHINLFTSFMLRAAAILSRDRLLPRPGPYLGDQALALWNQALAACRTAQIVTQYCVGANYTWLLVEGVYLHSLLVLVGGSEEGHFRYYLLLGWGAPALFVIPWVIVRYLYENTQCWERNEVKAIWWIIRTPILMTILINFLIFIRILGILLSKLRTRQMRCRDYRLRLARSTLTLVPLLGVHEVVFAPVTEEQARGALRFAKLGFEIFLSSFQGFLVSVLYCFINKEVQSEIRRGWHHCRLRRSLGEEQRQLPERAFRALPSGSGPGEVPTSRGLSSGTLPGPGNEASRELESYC

[2] = biological target: T2, hGLP-1R (Homo sapiens, UniProt P43220); test: Functional cAMP activity in the presence of 1% HSA; conditions: read-out: cAMP Rel EC50, hGLP-1R
[3] = biological target: human GcgR (Homo sapiens, UniProt P47871); test: Functional cAMP activity in the presence of 1% HSA; conditions: read-out: cAMP Rel EC50, hGcgR
[4] = biological target: T1, hGIPR; test: Functional cAMP activation in the presence of 0.1% casein (no HSA); conditions: read-out: Relative cAMP EC50, hGIPR;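 on Relative cAMP EC50, hGIPR: intracellular cAMP rise after 30 min at 37 °C read by HTRF against a standard curve, scaled between buffer alone (0%) and top control ligand concentration (100%), four-parameter fit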;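 on Relative cAMP EC50, hGLP-1R: intracellular cAMP rise after 30 min at 37 °C read by HTRF, normalized between buffer only (0%) and maximal control ligand (100%), four-parameter variable-slope fit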;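 on Relative cAMP EC50, hGcgR: intracellular cAMP rise after 30 min at 37 °C, read by HTRF against a cAMP standard curve, scaled from buffer only (0%) to maximal control ligand response (100%)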
[5] = biological target: T2, hGLP-1R; test: as above; conditions: read-out: Relative cAMP EC50, hGLP-1R
[6] = biological target: hGcgR (Homo sapiens, UniProt P47871); test: as above; conditions: read-out: Relative cAMP EC50, hGcgR;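 further: intracellular cAMP rise after 30 min at 37 °C, read by HTRF against a cAMP standard curve, scaled from buffer only (0%) to maximal control ligand response (100%)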
Sequence of hGcgR (P47871 26-477): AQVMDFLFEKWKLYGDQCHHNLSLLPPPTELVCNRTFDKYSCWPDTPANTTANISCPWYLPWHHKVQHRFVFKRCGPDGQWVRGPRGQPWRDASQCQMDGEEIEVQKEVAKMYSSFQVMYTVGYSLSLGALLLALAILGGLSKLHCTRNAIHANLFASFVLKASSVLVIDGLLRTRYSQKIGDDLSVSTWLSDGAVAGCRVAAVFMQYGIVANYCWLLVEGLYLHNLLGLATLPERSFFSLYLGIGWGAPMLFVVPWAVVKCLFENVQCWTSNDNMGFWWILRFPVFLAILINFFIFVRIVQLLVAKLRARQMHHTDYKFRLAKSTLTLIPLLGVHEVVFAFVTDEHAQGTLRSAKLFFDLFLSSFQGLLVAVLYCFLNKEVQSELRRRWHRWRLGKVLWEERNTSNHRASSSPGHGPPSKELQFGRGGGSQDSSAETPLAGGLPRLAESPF
Experimental: After a 30-minute incubation at 37° C., the resulting increase in intracellular cAMP is quantitatively determined using the CisBio CAMP Dynamic 2 HTRF Assay Kit (62AM4PEJ). Briefly, cAMP levels within the cell are detected by adding the cAMP-d2 conjugate in cell lysis buffer followed by the antibody anti-cAMP-Eu^3+-Cryptate, also in cell lysis buffer.
Intracellular cAMP levels are determined by extrapolation using a standard curve. Dose response curves of compounds are plotted as the percentage of stimulation normalized to minimum (buffer only) and maximum (maximum concentration of each control ligand) values and analyzed using a four parameter non-linear regression fit with a variable slope (Genedata Screener 13). EC50 is the concentration of compound causing half-maximal simulation in a dose response curve. Each relative EC50 value for the Geometric mean calculation is determined from a curve fitting.

T2 sequence (P43220 24-463): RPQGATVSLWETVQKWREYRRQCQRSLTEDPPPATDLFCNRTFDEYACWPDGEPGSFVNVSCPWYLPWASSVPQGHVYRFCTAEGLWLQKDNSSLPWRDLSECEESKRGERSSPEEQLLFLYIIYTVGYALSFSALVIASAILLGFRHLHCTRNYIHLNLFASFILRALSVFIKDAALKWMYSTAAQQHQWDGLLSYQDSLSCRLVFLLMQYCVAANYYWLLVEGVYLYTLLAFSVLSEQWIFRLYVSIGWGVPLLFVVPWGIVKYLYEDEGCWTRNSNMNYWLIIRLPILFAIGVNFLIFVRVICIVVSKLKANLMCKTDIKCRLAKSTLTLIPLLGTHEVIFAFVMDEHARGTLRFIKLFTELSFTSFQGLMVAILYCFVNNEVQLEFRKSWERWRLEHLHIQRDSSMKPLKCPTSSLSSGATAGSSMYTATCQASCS
Sequence of human GcgR (P47871 26-477): as the sequence (P47871 26-477) above

Row | SMILES | EC50 [1] [nM] | EC50 [2] [nM] | EC50 [3] [nM] | EC50 [4] [nM] | EC50 [5] [nM] | EC50 [6] [nM]
1 | CC[C@H](C)[C@H](NC(=O)[C@H](Cc1ccccc1)NC(=O)[C@H](CCCN)NC(=O)C(C)(C)NC(=O)[C@H](CCC(N)=O)NC(=O)[C@H](C)NC(=O)[C@H](CCCCNC(=O)CC[C@H](NC(=O)CC[C@H](NC(=O)CCCCCCCCCCCCCCCCC(=O)O)C(=O)O)C(=O)O)NC(=O)[C@H](CCCN)NC(=O)[C@H](CC(=O)O)NC(=O)[C@H](CC(C)C)NC(=O)[C@](C)(CC(C)C)NC(=O)[C@@H](NC(=O)[C@](C)(CO)NC(=O)[C@H](Cc1ccncc1)NC(=O)[C@H](CC(=O)O)NC(=O)[C@H](CO)NC(=O)[C@@H](NC(=O)[C@](C)(Cc1ccccc1F)NC(=O)[C@@H](NC(=O)CNC(=O)[C@H](CCC(N)=O)NC(=O)C(C)(C)NC(=O)[C@@H](N)Cc1ccc(O)cc1)[C@@H](C)O)[C@@H](C)O)[C@@H](C)CC)C(=O)N[C@H](CCC(=O)O)C(=O)N[C@@](C)(Cc1ccc(O)cc1)C(=O)N[C@@H](CC(C)C)C(=O)N[C@@H](CO)C(=O)N[C@@H](CCC(=O)O)C(=O)NCC(=O)NCC(=O)N1CCC[C@H]1C(=O)N[C@@H](CO)C(=O)N[C@@H](CO)C(=O)NCC(=O)N[C@@H](CCC(=O)O)C(=O)N1CCC[C@H]1C(=O)N1CCC[C@H]1C(=O)N1CCC[C@H]1C(=O)N[C@@H](CCC(=O)O)C(N)=O [Example 438] (H-Y[Aib]QGT[αMePhe(2-F)]TSD[4Pal][αMeS]I[αMeL]LD[Orn]K([γGlu-γGlu-C18 diacid])AQ[Aib][Orn]FI[dE][αMeY]LSEGGPSSGEPPPE-NH2) | 53.8 | 41.1 | 431 | 0.225 | 0.815 | 3.62
2 | CC[C@H](C)[C@H](NC(=O)[C@H](Cc1ccccc1)NC(=O)[C@H](CCCN)NC(=O)C(C)(C)NC(=O)[C@H](CCC(N)=O)NC(=O)[C@H](C)NC(=O)[C@H](CCCCNC(=O)CC[C@H](NC(=O)CC[C@H](NC(=O)CCCCCCCCCCCCCCCCC(=O)O)C(=O)O)C(=O)O)NC(=O)[C@H](CCCN)NC(=O)[C@H](CC(=O)O)NC(=O)[C@H](CC(C)C)NC(=O)[C@](C)(CC(C)C)NC(=O)[C@@H](NC(=O)[C@](C)(CO)NC(=O)[C@H](Cc1ccncc1)NC(=O)[C@H](CC(=O)O)NC(=O)[C@H](CO)NC(=O)[C@@H](NC(=O)[C@](C)(Cc1ccccc1F)NC(=O)[C@@H](NC(=O)CNC(=O)[C@H](CCC(N)=O)NC(=O)C(C)(C)NC(=O)[C@@H](N)Cc1ccc(O)cc1)[C@@H](C)O)[C@@H](C)O)[C@@H](C)CC)C(=O)N[C@H](CCC(=O)O)C(=O)N[C@@](C)(Cc1ccc(O)cc1)C(=O)N[C@@H](CC(C)C)C(=O)N[C@@H](CCC(N)=O)C(=O)N[C@@H](CCC(=O)O)C(=O)NCC(=O)NCC(=O)N1CCC[C@H]1C(=O)N[C@@H](CO)C(=O)N[C@@H](CO)C(=O)NCC(=O)N[C@@H](CCC(=O)O)C(=O)N1CCC[C@H]1C(=O)N1CCC[C@H]1C(=O)N1CCC[C@H]1C(=O)N[C@@H](CCC(=O)O)C(N)=O [Example 439] (H-Y[Aib]QGT[αMePhe(2-F)]TSD[4Pal][αMeS]I[αMeL]LD[Orn]K([γGlu-γGlu-C18 diacid])AQ[Aib][Orn]FI[dE][αMeY]LQEGGPSSGEPPPE-NH2) | 14.6 | 15.1 | 165 | 0.0634 | 0.293 | 4.38
